Legend:
[1] = target: T1, yeast fRMsr (Saccharomyces cerevisiae, UniProt P36088); assay: Reduction of methylsulfinyl drugs by yeast fRMsr (HPLC analysis); assay type: biochemical; details: in the presence of DTT
T1 construct: His-tag (C); made in house; host or cells: E. coli BL21 (DE3), pET21b
T1 sequence (P36088 1-180): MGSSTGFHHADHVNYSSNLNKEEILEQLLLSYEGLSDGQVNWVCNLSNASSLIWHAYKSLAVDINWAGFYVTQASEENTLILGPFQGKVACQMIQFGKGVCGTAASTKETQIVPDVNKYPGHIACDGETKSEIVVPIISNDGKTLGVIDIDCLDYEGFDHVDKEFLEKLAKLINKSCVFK
Procedure: (§1) Mesoridazine, which has a mild effect on treating schizophrenia, was examined to determine its reduction by yeast fRMsr, mouse MsrB2, and mouse MsrA (FIG. 14). The peak of m/z 387.6 corresponds to the molecular weight of mesoridazine and the peak of m/z 371.6 corresponds to the molecular weight of thioridazine. FIG. 14B details the HPLC analysis of mesoridazine incubated with mouse MsrB2 and DTT. FIG. 14C provides the HPLC analysis of mesoridazine incubated with yeast fRMsr and DTT. FIG. 14D illustrates the specific activities of various Msrs for the reduction of mesoridazine (left to right): mouse MsrA in the presence of DTT as a reductant, mouse MsrA in the presence of the thioredoxin reducing system, mouse MsrB2 in the presence of DTT, and yeast fRMsr in the presence of DTT.
The reduction of triclabendazole sulfoxide was examined. This compound has been used to treat liver fluke, Fasciola hepatica and Fasciola gigantica, in sheep, goat, and cattle as a form of triclabendazole. Triclabendazole can be metabolized to several different forms including triclabendazole sulfoxide, which is an oxidized form of methylsulfide group, in biological systems. FIG. 15A provides an HPLC analysis of triclabendazole sulfoxide incubated with mouse MsrA and DTT. […]

[2] = target: T2, mouse MsrA (Mus musculus, UniProt Q9D6Y7); assay: Reduction of methylsulfinyl compounds by mouse MsrA (HPLC/GC analysis); assay type: biochemical
T2 sequence (Q9D6Y7 21-233): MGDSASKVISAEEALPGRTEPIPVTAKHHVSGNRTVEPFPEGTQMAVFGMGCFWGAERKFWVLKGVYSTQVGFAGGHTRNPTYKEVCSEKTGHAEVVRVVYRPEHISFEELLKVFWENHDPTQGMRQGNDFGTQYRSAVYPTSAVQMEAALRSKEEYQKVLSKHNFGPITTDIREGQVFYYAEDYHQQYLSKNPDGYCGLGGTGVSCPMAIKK
Procedure: (§2) The isothiocyanate group in R,S-sulforaphane reacts with sulfhydryls to form conjugated compounds. First, the compound was treated with excess DTT (which has two free sulfhydryl groups) to conjugate the isothiocyanate group of R,S-sulforaphane or S-sulforaphane with the sulfhydryl group of DTT and the resulting adducts were then used as substrates for mouse MsrA and mouse MsrB2. The reduction of the DTT-sulforaphane adduct was analyzed using HPLC analysis of the adduct with buffer (as control; FIG. 12A), mouse MsrB2 (FIG. 12B), and mouse MsrA (FIG. 12C). The arrows indicate the migration of the DTT-erucin adduct. […] FIG. 13 illustrates the HPLC analysis of the DTT-R-sulforaphane adduct incubated with buffer (as control) (FIG. 13A), mouse MsrA (FIG. 13B), and mouse MsrB2 (FIG. 13C). Again, the arrows show the migration of the DTT-erucin adduct.
as §1
(§3) The reduction of triclabendazole sulfoxide was examined. This compound has been used to treat liver fluke, Fasciola hepatica and Fasciola gigantica, in sheep, goat, and cattle as a form of triclabendazole. Triclabendazole can be metabolized to several different forms including triclabendazole sulfoxide, which is an oxidized form of methylsulfide group, in biological systems. FIG. 15A provides an HPLC analysis of triclabendazole sulfoxide incubated with mouse MsrA and DTT. The peak of m/z 375.2 and 377.2 correspond to the molecular weight of triclabendazole sulfoxide and the peak of m/z 359.2 and 361.2 correspond to the molecular weight of triclabendazole. FIG. 15B illustrates an HPLC analysis of triclabendazole sulfoxide incubated with mouse MsrB2 and DTT. FIG. 15C details an HPLC analysis of triclabendazole sulfoxide incubated with yeast fRMsr and DTT. FIG. 15D illustrates the specific activities of various Msrs for the reduction of triclabendazole sulfoxide (left to right): mouse MsrA in the presence of DTT as a reductant, mouse MsrA in the presence of the thioredoxin reducing system, mouse MsrB2 in the presence of DTT, and yeast fRMsr in the presence of DTT.
(§4) Another methylsulfinyl-containing drug, sulmazole, was tested as a substrate for Msrs. This drug is pharmacologically active as a cardiotonic agent and is a phosphodiesterase inhibitor. FIG. 16A details an HPLC analysis of sulmazole incubated with mouse MsrA and DTT. The peak of m/z 288.3 corresponds to the molecular weight of sulmazole and the peak of m/z 272.3 corresponds to the molecular weight of reduced form of sulmazole. FIG. 16B illustrates an HPLC analysis of sulmazole incubated with mouse MsrB2 and DTT. FIG. 16C provides an HPLC analysis of sulmazole incubated with yeast fRMsr and DTT. FIG. 16D details the specific activities of various Msrs for the reduction of sulmazole (left to right): mouse MsrA in the presence of DTT as a reductant, mouse MsrA in the presence of the thioredoxin reducing system, mouse MsrB2 in the presence of DTT, and yeast fRMsr in the presence of DTT.
DMSO, which is used as a preservative for stem cells, solvent for drugs, and a drug itself with anti-inflammatory and free radical scavenging properties, was studied for its reduction by Msrs. FIG. 17A details a GC analysis of DMSO incubated with mouse MsrA and DTT. […]

[3] = target: mouse MsrB2 (Mus musculus, UniProt Q78J03); assay: Reduction of methylsulfinyl compounds by mouse MsrB2 (HPLC/GC analysis); assay type: biochemical; details: in the presence of DTT
Procedure: as §2, §1, §3
as §4, with “FIG. 16D details the specific activities of various Msrs for the reduction of sulmazole (left to right): mouse MsrA in the presence of DTT as a reductant, mouse MsrA in the presence of the thioredoxin reducing system, mouse MsrB2 in the presence of DTT, and yeast fRMsr in the presence of DTT.” left out

[4] = test system: SK-Hep1 cells; assay: Growth of SK-Hep1 cells in media supplemented or not with sodium selenite; assay type: cell-based, human; details: 100 nM; FBS-supplemented and insulin/transferrin media
Procedure: Growth of SK-Hep1 cells was analyzed in modified DMEM media containing Met, Met-SO, Met-RO, or Met-RSO (0.1 mM of each amino acid) or with no addition of these compounds. In addition, media were supplemented or not with 100 nM sodium selenite. Cells were analyzed at 0, 24, 48, and 72 hours. Another experiment involving SK-Hep1 cells was performed with cells grown in serum-free modified DMEM medium, containing insulin (5 μg/mL) and transferrin (10 μg/mL), Met or Met-RSO (0.1 mM of each amino acid) and 100 nM sodium selenite (or with no addition of this compound), and separately in 10% dialyzed FBS-containing DMEM medium containing 0.1 mM Met with 100 nM sodium selenite (or not). Cells were analyzed at 0, 24, 48, and 72 hours. Cell growth assays were carried out as described below.
Proliferation Assay—Cell growth was quantified using colorimetric MTS assay (Promega). Cells in regular DMEM medium were plated in 96-well plates at 5×10^3 cells/well, washed with PBS, and specialized DMEM media were added that contained Met, Met-SO, Met-RO, or Met-RSO 24 hours after plating. […] After 90 minutes of incubation at 37° C. in the atmosphere of 5% CO2, cell proliferation was measured at indicated time periods from 0 to 96 hours at 450 nm in a plate reader. […]

[5] = target: T3, mouse MsrB1-Cys (Mus musculus, UniProt Q9JLC3, U95C); assay: Reduction of DMSO by mouse MsrB1-Cys (GC analysis); assay type: biochemical; details: in the presence of DTT; selenocysteine replaced with cysteine
T3 sequence (Q9JLC3 1-116 U95C): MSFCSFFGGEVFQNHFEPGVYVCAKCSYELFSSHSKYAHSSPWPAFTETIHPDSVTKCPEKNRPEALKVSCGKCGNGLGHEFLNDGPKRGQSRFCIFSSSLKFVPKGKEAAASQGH
Procedure: DMSO, which is used as a preservative for stem cells, solvent for drugs, and a drug itself with anti-inflammatory and free radical scavenging properties, was studied for its reduction by Msrs. FIG. 17A details a GC analysis of DMSO incubated with mouse MsrA and DTT. FIG. 17B provides a GC analysis of DMSO incubated with mouse MsrB2 and DTT. FIG. 17C illustrates a GC analysis of DMSO incubated with mouse MsrB1-Cys and DTT. FIG. 17D provides specific activities of various Msrs for the reduction of DMSO (left to right): mouse MsrA in the presence of DTT as a reductant, mouse MsrB2 in the presence of DTT, and mouse MsrB1-Cys in the presence of DTT.

[6] = thioredoxin system as reductant

mouse MsrB2, sequence (Q78J03 43-175): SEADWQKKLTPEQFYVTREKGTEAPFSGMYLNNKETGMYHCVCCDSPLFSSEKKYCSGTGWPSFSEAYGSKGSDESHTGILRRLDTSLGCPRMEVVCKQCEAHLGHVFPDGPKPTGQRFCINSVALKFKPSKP

Molecule	Reduction by yeast fRMsr [1]	Reduction by mouse MsrA ([2]; DTT as a reductant)	Reduction by mouse MsrA [2, 6]	Reduction by mouse MsrB2 [3]	Influence on cell growth on Met and Met sulfoxide [4]	Reduction by mouse MsrB1-Cys [5]
CN1CCCCC1CCN1c2ccccc2Sc2ccc([S+](C)[O-])cc21 (stereo not drawn) [Mesoridazine]	no activity was observed	reduced to thioridazine	reduced to thioridazine	no activity was observed	–	–
O=[Se]([O-])[O-].[Na+].[Na+] [sodium selenite]	–	–	–	–	did not influence cell growth	–
COc1cc([S+](C)[O-])ccc1-c1nc2ncccc2[nH]1 (stereo not drawn) [sulmazole, Sulmazole]	not reduced	specifically reduced	specifically reduced	not reduced	–	–
Dimethylsulfoxide [DMSO]	–	can be reduced	–	very inefficient substrate	–	very inefficient substrate

From patent US20110178072A1, “STEREOSPECIFICITY OF METHYLSULFINYL REDUCTION” (priority 2008, published 2011)
